Experiments:
[1] = system: cerebral ischemia model mice (left middle cerebral artery infarction, reperfusion); assay: Tomato lectin staining of cerebral microvessels (blood-brain barrier disorder) in transient cerebral ischemia model mice; type: in vivo, C57BL/J6 mice; conditions: for tomato lectin signal (microvessel length) on the ipsilateral-to-ischemia side, cerebrocortical sensation region: 1 h MCAO, i.v. 1 h after reperfusion, ProTα 100 μg/kg, ProTα30 1 mg/kg, ProTα9 0.3 mg/kg, C-term 0.3 mg/kg; for suppression of cerebrovascular collapse (tomato lectin staining, cortex and striatum): Example 4, same experiment as Example 1, ProTα vs ProTα30
Description: Five minutes later, the whole body was perfused and fixed with para-formaldehyde (PFA); the brain was extracted and further treated with 4% PFA at room temperature for 3 hours. Thereafter, the brain was placed in 25% sucrose solution and allowed to stand at 4° C. overnight. The brain was freeze-embedded in the OCT compound, and a 50 μm-thick section was prepared on a plane including the cerebral cortex sensory area S1 (CS1) or S2 (CS2), bonded onto a silane-coated glass slide, and dried on a heater overnight. Thereafter, using Alexa Fluor488-labeled streptavidin (diluted 300 fold with 2% BSA/PBST), fluorescent staining of tomato lectin was performed, after which the specimen was fixed with the fluorescent antifading agent Fluoromount (Japan Tanner Corporation), and allowed to stand in the dark overnight, then examined using the LSM5 PASCAL confocal laser microscope (Carl Zeiss). Fluorescent signals were cumulatively analyzed for total fluorescence in an approximately 30 μm range by the deconvolution method.
After 0.5 hours of middle cerebral artery obstruction (MCAO), reperfusion was performed; 1 hour later, tomato lectin staining in the CS2 region was observed as a signal of approximately 30 μm length on the contralateral-to-ischemia side (the scale bar is 100 μm, ×20 objective lens).
The same experiment as that shown in Example 1 was performed using ProTα and the active form ProTα30, and the effects thereof were comparatively analyzed.
Furthermore, fluorescent staining of tomato lectin was performed in the same manner as in Example 1, and microvessels were analyzed.
When reperfusion was performed after 1 hour of middle cerebral artery occlusion (MCAO), tomato lectin staining of the cerebrocortical sensation region was observed as a signal roughly 30 μm long on the contralateral-to-ischemia side (Contra).

[2] = system: photoinduced middle cerebral artery thrombosis (PIT) model mice; assay: Photoinduced middle cerebral artery thrombosis (PIT) model mice: infarction region volume, motor function; type: in vivo, C57BL/J6 mice; conditions: for infarction (infarction region volume): after 24 hours of ischemia, solvent 48%; for motor function evaluation (inability to keep the posture and leaning or loss of spontaneous movement): 24 hours after ischemia, ProTα 100 μg/kg, ProTα30 1 mg/kg, ProTα9 0.1-1 mg/kg
Description: The left middle cerebral artery of a C57BL/J6 mouse was exposed under the dura, and the photosensitizing dye rose bengal was administered at 30 mg/kg into a caudal vein, after which green light with a given wavelength was irradiated to the middle cerebral artery for 10 minutes to produce a thrombus, and induce infarction with this thrombus. One hour after light irradiation, vehicle, ProTα (100 μg/kg), ProTα30 (1 mg/kg), or ProTα9 (0.1 mg/kg, 0.3 mg/kg and 1 mg/kg) was administered to a caudal vein. Next, after 24 hours of ischemia, infarction region volume was measured to evaluate the motor function in the same manner as the above.

[3] = system: transient cerebral ischemia model mice; assay: Transient cerebral ischemia model mice: infarction region volume (TTC), clinical score, survival rate; conditions: for infarction region suppressing effect: 0.3 mg/kg i.v.; for infarction (infarction region volume, TTC): 24 h later, solvent alone 48%; for infarction (infarction region volume): solvent 48%
Description: Cerebral ischemia model mice generated by infarcting the left middle cerebral arteries of C57BL/J6 mice were maintained for 1 hour, and then reperfusion was performed. One hour after the reperfusion, a vehicle or ProTα30 (10 μg) was intracerebroventricularly administered (i.c.v.); the mice were examined over time every 24 hours to evaluate the motor function and survival rate. Also, clinical scores indicating movement disorders subsequent to left middle cerebral artery infarction were evaluated according to the rating system of 1: unable to completely extend the right forelimb, 2: rightward turning behavior, 3: unable to keep the posture and leans in the rightward direction, 4: loss of spontaneous movement, 5: death.
Meanwhile, 1 hour after ischemia and reperfusion, ProTα30 (0 μg (Veh), 0.1 μg or 10 μg) was intracerebroventricularly administered; the whole brain, extracted 24 hours thereafter was treated with 2% TTC (2,3,5-Triphenyltetrazolium chloride) staining solution in solution in PBS, and washed with PBS, after which five coronary sections of 1 mm thickness were taken with coverage of 2 mm anteriorly and 3 mm posteriorly from the bregma. […] The cerebral infarction region was evaluated according to the equation below. […] All volume on the ipsilateral side refers to the entire infarcted and non-infarcted regions on the ischemized side as divided on the median line, whereas all volume on the contralateral side refers to the entire region on the non-ischemized side.

[4] = system: permanent cerebral ischemia model mice; assay: Permanent cerebral ischemia model mice: infarction region volume, clinical score, survival rate; conditions: no reperfusion, 24 h later, solvent 60%
Description: To permanent cerebral ischemia model mice generated by infarcting the middle cerebral arteries of C57BL/J6 mice, ProTα30 was intravenously administered (i.v.), without reperfusion, 2 hours and 4 hours after the start of ischemia. Next, 24 hours later, in the same manner as the above, infarction region volume was measured.
To permanent cerebral ischemia model mice generated by infarcting the middle cerebral arteries of C57BL/J6 mice, ProTα was administered into a caudal vein at 100 μg/kg, without reperfusion, 2, 7, or 12 hours after the start of ischemia. Next, in the same manner as the above, infarction region volume was measured. […] In the same mice, motor function was evaluated. Clinical scores indicating motor function disorders were evaluated in the same manner as Example 5.
Meanwhile, a vehicle or ProTα (100 μg) was administered into a caudal vein (i.v.) 2 and 4 hours after the start of ischemia, and the mice were examined over time every 24 hours to evaluate the motor function and survival rate.

[5] = system: permanent cerebral ischemia model rats; assay: Permanent cerebral ischemia model rats: infarction region volume, clinical score, survival rate
Description: To permanent cerebral ischemia model rats generated by infarcting the middle cerebral arteries of Sprague-Dawley rats, ProTα was administered into a caudal vein (i.v.), without reperfusion, 4 hours after the start of ischemia. Next, 24 hours later, infarction region volume was measured in the same manner as the above.
Furthermore, rats were examined over time every 24 hours to evaluate the motor function and survival rate.

[6] = 1 mg/kg caudal vein 1 hour after light irradiation

Substance	tomato lectin signal (microvessel length) on the ipsilateral-to-ischemia side, cerebrocortical sensation region [1]	infarction injury region, dose dependence ([2]; 0.1 mg/kg, 0.3 mg/kg and 1 mg/kg caudal vein)	infarction (infarction region volume) [2, 6] [%]	motor function evaluation (inability to keep the posture and leaning or loss of spontaneous movement) [2]	infarction region suppressing effect [3]	suppression of cerebrovascular collapse (tomato lectin staining, cortex and striatum) [1]	infarction (infarction region volume) ([4]; 1 mg/kg i.v. once, 2 hours after infarction) [%]	infarction (infarction region volume) ([4]; i.v. twice, at 2 hours and 4 hours) [%]	infarction (infarction region volume, TTC) ([3]; 0.1 μg i.c.v. 1 h after reperfusion) [%]	infarction (infarction region volume, TTC) ([3]; 10 μg i.c.v. 1 h after reperfusion) [%]	motor function evaluation (clinical score) ([3]; 10 μg i.c.v., loss of spontaneous movement 3 days after ischemia and reperfusion)	clinical scores (hemiparalysis of degree 3) ([3]; 0.275 mg/kg i.v.)	infarction (infarction region volume) ([3]; 0.275 mg/kg i.v. once 1 hour after reperfusion) [%]	clinical scores (hemiparalysis of degree 3) ([3]; 1 mg/kg i.v.)	infarction (infarction region volume) ([3]; 1 mg/kg i.v. once 1 hour after reperfusion) [%]	survival rate ([3]; mouse, in vivo)	cerebrovascular destruction in the CS2 and striata on the ischemized side (tomato lectin staining) ([1]; 0.1 mg/kg i.v. 1 hour after reperfusion, examined 24 hours after reperfusion)	infarction (infarction region volume) ([2]; 100 μg/kg caudal vein 1 hour after infarction) [%]	survival rate ([5]; 100 μg caudal vein, about 2 weeks later, non-dosing group 50% one day after ischemia)	infarction (infarction region volume) ([5]; 100 μg/kg i.v. 4 hours after infarction, 24 h later, solvent 40%) [%]
C-term: C-end of ProTα, amino acid sequence TKKQKKTDEDD (SEQ ID NO: 50) [reference compound]	observed only as a fragment																			
ProTα9: polypeptide consisting of the 52nd amino acid to the 60th amino acid of rat prothymosin α, EVDEEEEEG (SEQ ID NO:6) (consensus amino acid sequence)	longer signals	decreased in a dose-dependent fashion	30	significantly ameliorated	cerebral infarction region suppressing effect															
ProTα30: polypeptide consisting of the 49th amino acid to the 78th amino acid of rat prothymosin α (SEQ ID NO:4) (ADNEVDEEEEEGGEEEEEEEEGDGEEEDGD; consensus amino acid sequence)	longer signals		30	significantly ameliorated	cerebral infarction region suppressing effect	suppressing cerebrovascular collapse	34	27	44	38	significantly ameliorated	no effect was observed	39	ameliorated significantly	13	about 80%				
prothymosin α (SDAAVDTSSEITTKDLKEKKEVVEEAEN; UniProt P26350 2-29, looked up) [ProTα]	longer signals			significantly ameliorated		suppressing cerebrovascular collapse											disappeared nearly completely	23	about 75%	25

— patent US9023835B2, “Agent for ameliorating blood-brain barrier disorders” (Nagasaki University, priority 2009, dated 2015)
